Reference: patent US20060160906A1, “Polyamine analogs as therapeutic agents for ocular diseases” (priority 2004, published 2006)
“Also recorded” adds a separate entry of the source.

Tests used:
[1] = tested on: choroidal neovascularization (CNV) at Bruch's membrane rupture sites; test: Mouse model of laser-induced choroidal neovascularization (rupture of Bruch's membrane), CNV area on choroidal flat mounts; format: in vivo, C57BL/6J mice; conditions: for amount of established CNV on day 14 vs vehicle and day 7 baseline (regression): single periocular injection at day 7; for amount of CNV on day 14 vs vehicle (suppression): single periocular injection at time of rupture
[2] = tested on: subretinal neovascularization; test: Rhodopsin/VEGF transgenic mice, subretinal neovascularization; format: in vivo, rhodopsin/VEGF transgenic mice (V6 mice); conditions: periocular injection at P7, measured P21; 100 μg CGC-11144, 1 mg CGC-11047, 750 μg CGC-11093
From the text: Transgenic mice (V6 mice) in which the rhodopsin promoter drives expression of VEGF165 in photoreceptors have onset of VEGF expression at post-natal day 7 (P7) and soon after begin to develop neovascularization originating from the deep capillary bed that grows through the photoreceptor layer into the subretinal space. (Okamoto N et al., Amer. J. Pathol. 151: 281-91 (1997); Tobe T et al., Invest. Ophthalmol. Vis. Sci. 39: 180-188 (1998)). Hemizygous transgene positive mice were given a periocular injection of 100 μg of CGC-11144 (n=3), 1 mg of CGC-11047 (n=3), 750 μg of CGC-11093 (n=3) or vehicle (n=7) at P7. At post-natal day 21 (P21), mice were euthanized and the amount of subretinal neovascularization was quantified as previously described (Tobe, ibid.). Briefly, mice were anesthetized, perfused with fluorescein-labeled dextran, and the number of neovascular lesions on the outer surface of the retina and their total area were measured on retinal flat mounts by image analysis as described in Example 1.

[3] = tested on: retinal neovascularization; test: Oxygen-induced ischemic retinopathy, retinal neovascularization; format: in vivo, neonatal C57BL/6 mice; conditions: 100 μg CGC-11144, 1 mg CGC-11047, 750 μg CGC-11093; for amount of retinal neovascularization at P20 vs vehicle (regression): daily periocular injections P17 to P20; for amount of retinal neovascularization at P17 vs vehicle (suppression): periocular injection at P12
Protocol: Ischemic retinopathy can be produced in neonatal C57BL/6 mice as described (Smith, L. E et al., Invest. Opthalmol. Vis. Sci. 35: 101-111 (1994)) and serves as a model for retinopathy of prematurity (ROP). Post-natal day 7 (P7) mice and their mothers were placed in an airtight incubator and exposed to an atmosphere of 75±3% oxygen for 5 days. Incubator temperature was maintained at 23±2° C. and oxygen was continuously monitored with a PROOX model 110 oxygen controller (Reming Bioinstruments Co., Redfield, N.Y.). At post-natal day 12, mice were placed back in room air and were given a periocular injection of 3 μl containing 100 μg of CGC-11144 (n=4), 1 mg of CGC-11047 (n=4), 750 μg of CGC-11093 (n=4) or vehicle. On post-natal day 17 (P17) the treated and control mice were euthanized and the amount of retinal neovascularization was measured.
For measurement of retinal neovascularization, eyes were removed and fixed in 2% paraformaldehyde in phosphate buffered saline (PBS) for one hour and rinsed twice in 25% sucrose in PBS. Specimens were incubated in 25% sucrose in PBS overnight and embedded in OCT compound (Miles Diagnostics, Elkhart, Ind.),). 10 μm frozen sections were post-fixed for 15 minutes in 0.5% glutaraldehyde in PBS and washed in PBS. Sections were also histochemically stained with biotinylated Griffonia simplicifolia lectin B4 (GSA, Vector Laboratories, Burlingame, Calif.), which selectively binds to vascular cells. Slides were incubated in methanol/H2O2 for 10 minutes at 4° C., washed with 0.05 M Tris-buffered saline, pH 7.6 (TBS), and incubated for 30 minutes in 10% normal porcine serum. Slides were incubated 2 hours at room temperature with biotinylated GSA and after rinsing with 0.05M TBS, they were incubated with avidin coupled to peroxidase (Vector Laboratories, Burlingame, Calif.) for 30 minutes at room temperature. After being washed for 10 minutes with 0.05M TBS, slides were incubated with diaminobenzidine (Research Genetics, Huntsville, Ala.) to give a brown reaction product.
To perform quantitative assessments, 10 μm frozen serial sections were cut from the iris root on one side of the eye to the iris root on the opposite side of the eye and every tenth section was stained with GSA. Retinas were examined with an Axioskop microscope and images were digitized using a 3 CCD color video camera and a frame grabber. Image-Pro Plus software was used to delineate GSA-stained vascular cells above the internal limiting membrane and the total area of staining was measured.
To investigate the effect of these agents on regression of retinal neovascularization, ischemic retinopathy was induced and left untreated until P17, when the baseline amount of retinal neovascularization was measured in one group of mice. From post-natal days 17 to 20 (P17 to P20) the remainder of the mice were given daily periocular injections of 100 μg of CGC-11144 (n=4), 1 mg of CGC-11047 (n=4), 750 μg of CGC-11093 (n=4) or vehicle. On P20 the mice were euthanized and the amount of retinal neovascularization in the treated and control mice was measured as described above.

[4] = 2 mg CGC-11047, 1.5 mg CGC-11093
[5] = 200 μg CGC-11144, 2 mg CGC-11047, 1.5 mg CGC-11093
[6] = single periocular injection one week prior to rupture, 200 μg CGC-11144, 2 mg CGC-11047, 1.5 mg CGC-11093
[7] = single periocular injection three weeks before laser, 2 mg CGC-11047, 1.5 mg CGC-11093
[8] = single periocular injection two weeks prior to rupture, 200 μg CGC-11144, 2 mg CGC-11047, 1.5 mg CGC-11093

SMILES | area of CNV vs day 7 baseline and vehicle fellow eyes (regression) ([1]; daily periocular injections days 7 to 14, 200 μg CGC-11144, 100 μg DFMO, or both) | subretinal neovascularization vs vehicle [2] | amount of established CNV on day 14 vs vehicle and day 7 baseline (regression) [1, 4] | amount of CNV on day 14 vs vehicle (suppression) [1, 5] | amount of CNV vs vehicle (duration of effect) [1, 6] | amount of CNV vs vehicle (duration of effect) [1, 7] | amount of CNV vs vehicle (duration of effect) [1, 8] | amount of retinal neovascularization at P20 vs vehicle (regression) [3] | amount of retinal neovascularization at P17 vs vehicle (suppression) [3]
NCCCC(N)(C(=O)O)C(F)F (racemic) [DFMO, D,L-α-difluoromethyl-omithine, reference compound] | significant reduction in the area of CNV; also recorded: significantly less | – | – | – | – | – | – | – | –
CCNCCCNC/C=C\CNCCCNCC [CGC-11047] | – | significantly less subretinal neovascularization | less CNV than those treated with vehicle and less than the baseline amount of CNV | significantly reduced the amount of CNV | significant reduction of the amount of CNV | no significant effect | significantly smaller amounts of CNV | significantly less neovascularization | significantly less
CCNCCCCNCC1CC1CNCCCCNCC (centres unmarked) [CGC-11093] | – | significantly less subretinal neovascularization | less CNV than those treated with vehicle and less than the baseline amount of CNV | significantly reduced the amount of CNV | significant reduction of the amount of CNV | no significant effect | significantly smaller amounts of CNV | significantly less neovascularization | significantly less
